Test results reported in the supplement of paper PMC10307832.

Assays:
Test in all cases: relative viability (nuclei count vs DMSO), 5 days (fraction); higher = more cells survive
[1] = compound: C=CCn1c(=O)c2cnc(Nc3ccc(N4CCN(C)CC4)cc3)nc2n1-c1cccc(C(C)(C)O)n1 [Adavosertib] + COc1cccc2cc(-c3nc([C@H]4CC[C@H](C(=O)O)CC4)n4ncnc(N)c34)[nH]c12 [OSI-027] (partner 0.5 µM)
Procedure, shortened: (§1)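 Five library-drug doses in √10 steps were combined with a fixed anchor-drug dose, or a single drug was given alone, by pin tool to lung cancer cell lines in 1536-well plates the day after seeding. Nuclei were stained and counted after 5 days. Relative viability is the nuclei count in treated wells over that in vehicle wells, taken as the median of duplicate plates.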

[2] = compound: COc1nc(N)nc2c1ncn2[C@@H]1O[C@H](CO)[C@@H](O)[C@@H]1O [Nelarabine] + Cc1nc(Nc2ncc(C(=O)Nc3c(C)cccc3Cl)s2)cc(N2CCN(CCO)CC2)n1 [Dasatinib] (partner 0.075 µM)
Procedure, shortened: as §1

[3] = compound: C=CCn1c(=O)c2cnc(Nc3ccc(N4CCN(C)CC4)cc3)nc2n1-c1cccc(C(C)(C)O)n1 [Adavosertib] + C[C@@H](Oc1cc(-c2cnn(C3CCNCC3)c2)cnc1N)c1c(Cl)ccc(F)c1Cl [Crizotinib] (partner 1 µM)
Procedure, shortened: as §1

[4] = compound: COc1nc(N)nc2c1ncn2[C@@H]1O[C@H](CO)[C@@H](O)[C@@H]1O [Nelarabine] + CC(=O)c1c(C)c2cnc(Nc3ccc(N4CCNCC4)cn3)nc2n(C2CCCC2)c1=O [Palbociclib] (partner 0.5 µM)
Procedure, shortened: as §1

Question: Which relative viability ([1]; first compound 0.01 µM) does the source give for EMC-BAC-2 here?
Answer: 0.375

Question: What about the relative viability ([1]; first compound 0.03162 µM) of the same cell line?
Answer: 0.412

Question: What about the relative viability ([1]; first compound 0.1 µM) of the same cell line?
Answer: 0.396

Question: What about the relative viability ([1]; first compound 0.3162 µM) of the same cell line?
Answer: 0.307

Question: And the relative viability ([2]; first compound 0.01 µM)?
Answer: 0.409

Question: And the relative viability ([2]; first compound 0.03162 µM)?
Answer: 0.348

Question: And the relative viability ([2]; first compound 0.1 µM)?
Answer: 0.304

Question: What about the relative viability ([2]; first compound 0.3162 µM) of the same cell line?
Answer: 0.374

Question: And the relative viability ([2]; first compound 1 µM)?
Answer: 0.356

Question: What about the relative viability ([3]; first compound 0.01 µM) of the same cell line?
Answer: 0.846

Question: What about the relative viability ([3]; first compound 0.03162 µM) of the same cell line?
Answer: 0.754

Question: What about the relative viability ([3]; first compound 0.1 µM) of the same cell line?
Answer: 0.887

Question: And the relative viability ([3]; first compound 0.3162 µM)?
Answer: 0.811

Question: And the relative viability ([4]; first compound 0.01 µM)?
Answer: 0.539

Question: What about the relative viability ([4]; first compound 0.03162 µM) of the same cell line?
Answer: 0.514

Question: And the relative viability ([4]; first compound 0.1 µM)?
Answer: 0.512

Question: And the relative viability ([4]; first compound 0.3162 µM)?
Answer: 0.529

Question: And the relative viability ([4]; first compound 1 µM)?
Answer: 0.514
